The source of these data is article PMC8113459, “Selective inhibition of cullin 3 neddylation through covalent targeting DCN1 protects mice from acetaminophen-induced liver toxicity” (Nature Communications, 2021).

The term viability denotes a read-out of living cells in per cent, often relative to untreated cells. What is called EC50 is the concentration needed to bring the measured effect to its halfway point.

Several values for one entry are separate records, joined by “and”; a condition that tells them apart may be missing. Equal values may be shown once. Read-outs that look alike come from different tables or passages of the source.

Data set [1] can be described thus: Cell viability assay (WST-8), MDA-MB-231. The format is cell-based, human. The note with it: human, MDA-MB-231 cells, replicates, read-out: cell viability relative to control. A digest of the protocol:
(§1)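 Cells (2000–3000 per well) were treated with serial dilutions of DCN1 inhibitors for 3 days, then incubated 1–3 h with WST-8 and absorbance read at 450 nm. Growth inhibition was sample-to-control absorbance ratio, with EC50 from fitted curves.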
(In general: Tetrazolium dyes change colour on reduction, which living cells bring about.)

Data set [2] relates to MDA-MB-231 cells. In words: Cell viability assay (WST-8), MDA-MB-231. The class given is cell-based, human. The note with it: for cell viability relative to control: replicates. In outline: as §1
The test system of data set [3] is HCT116 cells. As to the kind of experiment: Cell viability assay (WST-8), HCT116. The format is cell-based, human. The note with it: Homo sapiens, HCT-116; 72 h; cell line assigned from panel order; read-out: EC50, cell growth inhibition. In outline: as §1
For data set [4], the target named is T1, cellular DCN3 protein in U2OS cells (Homo sapiens, UniProt Q8IWE4).
T1 construct: endogenous in cells; host or cells: U2OS
T1 sequence (Q8IWE4 whole entry): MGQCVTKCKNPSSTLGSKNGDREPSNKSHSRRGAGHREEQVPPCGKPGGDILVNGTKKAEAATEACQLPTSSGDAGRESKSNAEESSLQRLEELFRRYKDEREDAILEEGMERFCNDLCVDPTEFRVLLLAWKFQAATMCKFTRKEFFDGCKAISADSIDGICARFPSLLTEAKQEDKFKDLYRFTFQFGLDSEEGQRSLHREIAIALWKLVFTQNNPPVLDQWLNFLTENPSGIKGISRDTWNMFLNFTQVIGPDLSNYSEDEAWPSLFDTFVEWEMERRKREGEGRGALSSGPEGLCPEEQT
As to the kind of experiment: Cellular thermal shift assay (CETSA), DCN3. The class given is cell-based. The note with it: concentrations up to 1000 nM. As to the method:
CETSA was performed as previously described. The U2OS cells (5 × 10^5 per sample) were treated with compounds or with DMSO for 1 h, washed with PBS for three times, and dissolved in 50 µL PBS supplemented with protease inhibitor, followed by heating at 53 °C in a Mastercycler gradient (Eppendorf, New York, USA). Treated cells were then subjected to snap-freezing in liquid nitrogen and thawed on ice for three cycles. The protein level of DCN1 and DCN3 in equal amount of the supernatant was examined by western blot methods. GAPDH was used as a control. Results are representative of three independent experiments.

Data set [5] has as its system neddylation of cullin 3. In words: Western blot, cullin 3 neddylation in THLE2 liver cells. The class given is cell-based, human. As for the experimental part: Western blotting was performed as described previously. Treated cells were lysed by RIPA buffer supplemented with protease inhibitor. The expression level of indicated proteins was examined by immunoblotting analysis and GAPDH was used as the loading control. Antibodies were purchased commercially: cullin 1 (sc-17775, 1:500 dilution) and cullin 2 (sc-166506, 1:500 dilution) from Santa Cruz Biotech (Santa Cruz, CA); cullin 4A (PA5-14542, 1:1000 dilution), cullin 4B (PA5-50647, 1:1000 dilution), and DCN3 (DCUN1D3, PA5-44000, 1:1000 dilution) from Thermo Fisher Scientific (Wayne, MI); cullin 3 (2759, 1:1000), NRF2 (12721, 1:1000 dilution), HO-1 (70081, 1:1000 dilution), and Bim (2819, 1:1000 dilution) from Cell Signaling Technology (Boston, MA); DCN1 (GWB-E3D700, 1:1000 dilution) from GenWay Biotech (San Diego, CA); and cullin 5 (A302-173A, 1:500 dilution) from Bethyl Labs (Montgomery, TX). Results are representative of two independent experiments.

For data set [6], the system named is APAP-induced liver injury. As to the kind of experiment: APAP-induced liver injury: alanine aminotransferase (ALT) level. The format is in vivo, mouse. As to conditions: for reduction of the elevated ALT level induced by 400 mg/kg of APAP: 24 h time point. As to the method: The in vivo studies were performed under animal protocols (PRO00007499) and (PRO00006638) approved by the Institutional Animal Care & Use Committee of the University of Michigan, in accordance with the recommendations in the Guide for the Care and Use of Laboratory Animals of the National Institutes of Health. C57BL/6 WT mice (~8 weeks, male, normal chow) were purchased from the Jackson Laboratory and randomly divided into eight groups (8–9 mice per group) treated (IP) as follows: phosphate-buffered saline vehicle once per day for 3 days (G1), APAP alone a single dose at 400 mg/kg on day 1 (G2), DI-1859 alone 25 mg/kg once per day for 3 days (G3), DI-1859 alone 50 mg/kg once per day for 3 days (G4), pretreatment (1 day before the APAP administration) with DI-1859 at 25 mg/kg once per day for 3 days followed with APAP at 400 mg/kg on day (G5), pretreatment (1 day before the APAP administration) with DI-1859 at 50 mg/kg once per day for 3 days followed with APAP at 400 mg/kg on day (G6), APAP a single dose at 400 mg/kg (3 h before the first DI-1859 administration) followed with DI-1859 at 25 mg/Kg once per day for 3 days (G7), and APAP a single dose at 400 mg/kg (3 h before the first DI-1859 administration) followed with DI-1859 at 50 mg/Kg once per day for 3 days (G8).
To induce acute liver injury, animals received PBS or APAP (400 mg/kg, sigma, A7085) through I.P. injection at 12 p.m. and were sacrificed 48 h afterward. To examine the protective effect of DI-1859 (groups 5 and 6), animals were I.P. injected with compound for 3 consecutive days (9 a.m. on each day, starting 1 day before APAP administration). To examine the restorative effect of DI-1859 (groups 7 and 8), animals were I.P. injected with compound 3 h after APAP administration followed by two additional treatments (9 a.m. on the next 2 days). Body weight and blood glucose level measurement, along with blood sample collection, were performed at 12 p.m. on each day.
Blood glucose levels were determined using glucometers (Bayer Corp., Pittsburgh, PA). Plasma ALT activity was measured using an ALT reagent set (Pointe Scientific Inc., Canton, MI).

Take `C=C(CN1CCOCC1)C(=O)NC[C@@H](NC(=O)[C@H](Cc1nc2ccc(C(C)C)cc2s1)NC(=O)CC)C1CCCCC1` [DI-1548]: the viability at 72 h in data set [1] (conc 30, 72 h) was found to be 105%; in data set [1] (conc 100, 72 h) it was 97.2%. For the same compound, the EC50 is over 1000 nM in data set [2] (Homo sapiens, MDA-MB-231, 72 h, cell line assigned from panel order, read-out: EC50, cell growth inhibition) and over 1000 nM in data set [3]. The “cell viability relative to control” value in data set [2] (conc 10, 72 h) was 103.908 and 110.805 and 88.1609; in data set [2] (conc 30, 72 h), 104.754 and 102.705; in data set [2] (conc 100, 72 h), 102.874 and 99.4253; in data set [2] (conc 300, 72 h) it was 87.0115 and 106.207 and 84.7126; in data set [2] (conc 1000, 72 h), 77.0115 and 107.241 and 112.414. Further, the “effect on the thermal stability of cellular DCN3 protein” value in data set [4] is recorded as “no discernible effect”.

As for `C=C(CN(C)C)C(=O)NC[C@@H](NC(=O)[C@H](Cc1nc2ccc(C(C)C)cc2s1)NC(=O)CC)C1CCCCC1` [DI-1859], in data set [5], the “times more potent than MLN4924 in inhibition of the neddylation of cullin 3” value was ~ 30 times. Besides, the “ALT(IU/L) mean” value in data set [6] (G3 PBS + Low, Time 0 hr) is recorded as 26.4101 IU/L; in data set [6] (G3 PBS + Low, Time 24 hr), 28.0781 IU/L; in data set [6] (G4 PBS + High, Time 0 hr) it was 28.6341 IU/L; in data set [6] (G4 PBS + High, Time 24 hr), 23.9081 IU/L; in data set [6] (G5 APAP + Low-pre, Time 0 hr), 32.3717 IU/L; in data set [6] (G5 APAP + Low-pre, Time 24 hr), 2856 IU/L. Moreover, the “ALT(IU/L) mean” value in data set [6] (G5 APAP + Low-pre, Time 48 hr) came to 171.99 IU/L; in data set [6] (G6 APAP + H-pre, Time 0 hr), 30.6419 IU/L; in data set [6] (G6 APAP + H-pre, Time 24 hr), 292.828 IU/L; in data set [6] (G6 APAP + H-pre, Time 48 hr), 49.2459 IU/L; in data set [6] (G7 APAP + Low-post, Time 0 hr), 30.889 IU/L; in data set [6] (G7 APAP + Low-post, Time 24 hr) it was 1341.82 IU/L. Further, the “ALT(IU/L) mean” value in data set [6] (G7 APAP + Low-post, Time 48 hr) is recorded as 134.182 IU/L; in data set [6] (G8 APAP + High-post, Time 0 hr), 29.1592 IU/L; in data set [6] (G8 APAP + High-post, Time 24 hr), 1771.79 IU/L; in data set [6] (G8 APAP + High-post, Time 48 hr), 227.59 IU/L. The “reduction of the elevated ALT level induced by 400 mg/kg of APAP” value is 20% in data set [6] (prevention setting (G5), 25 mg/kg); 90% and > 90% in data set [6] (prevention setting (G6), 50 mg/kg). In addition, the “reduction of the APAP-induced ALT elevations” value is ~ 50% and 50% in data set [6] (treatment setting (G7), 25 mg/kg after APAP); ~ 50% and 50% in data set [6] (treatment setting (G8), 50 mg/kg after APAP).
